Reference: US6818203B2, “Use of perfluoroalkyl-containing metal complexes as contrast media in MR-imaging for visualization of plaque, tumors and necroses” (Schering Aktiengesellschaft, priority 2000, dated 2004)

Tests used:
[1] = in vivo; cited from earlier work
[2] = tested on: primary tumor (VX2-tumor implanted i.m.); experiment: tumor visualization (MRT) after intravenous administration in VX2-tumor-bearing rabbits; type: in vivo; conditions: 200 μmol of Gd/kg i.v.
Procedure: The pictures of FIG. 6 show MR images of an iliac lymph node and of a primary tumor (VX2-tumor implanted i.m.) precontrast, 60 minutes and 20 hours after intravenous administration of 100 μmol of Gd/kg of body weight of metal complex I in rabbits. […]

[3] = critical micelle formation concentration (CMC) by tensiometry; type: physicochemical
Procedure: In aqueous systems, these amphiphilic molecules show the properties that are characteristic of standard surfactants (such as, e.g., sodium dodecylsulfate, SDS). They thus reduce the surface tension of water. By tensiometry, the so-called CMC (critical micelle formation concentration in mol/l) can be determined. In this respect, the surface tension is determined based on the concentration of the substance to be measured. The CMC can be calculated from the plot of the surface tension function (c) that is obtained. The critical micelle formation concentration of the compounds according to the invention must be <10^−3 mol/l, preferably <10^−4 mol/l.
(§1) Both the determination of the CMC and the photon correlation spectroscopy are described in H.-D. Dörfler, “Grenzflächen- und Kolloidchemie [Interface and Colloid Chemistry],” Weinheim, New York, Basel, Cambridge, Tokyo, VSH 1994.

[4] = tested on: myocardial infarction; experiment: infarction visualization (MRT) after intravenous administration in rats with acutely induced myocardial infarction; type: in vivo; conditions: 24 hours after i.v. 100 μmol of Gd/kg
From the text: The successful induction of an acute myocardial infarction was confirmed by means of NBT-staining.

[5] = tested on: iliac lymph nodes; experiment: lymph node visualization (MRT) after intravenous administration in VX2-tumor-bearing rabbits; type: in vivo; conditions: 200 μmol of Gd/kg i.v.
Procedure: The pictures of FIG. 6 show MR images of an iliac lymph node and of a primary tumor (VX2-tumor implanted i.m.) precontrast, 60 minutes and 20 hours after intravenous administration of 100 μmol of Gd/kg of body weight of metal complex I in rabbits. […] The enhancement in the healthy lymph node tissue was 382% at the time of 15 minutes p.i. and 419% at the time of 60 minutes p.i. […] The ratio of signal intensities of healthy lymph node tissue to metastasis was 3.0 at the time of 15 minutes p.i. and 3.4 at the time of 60 minutes p.i. […] The enhancement in the healthy lymph node tissue was 246% at the time of 15 minutes p.i. and 282% at the time of 60 minutes p.i. […] The ratio of signal intensities of healthy lymph node tissue to metastasis was 2.5 at the time of 15 minutes p.i. and 1.7 at the time of 60 minutes p.i. […] The enhancement in the healthy lymph node tissue was 297% at the time of 10 minutes p.i. and 269% at the time of 60 minutes p.i. […] The ratio of signal intensities of healthy lymph node tissue to metastasis was 5.1 at the time of 10 minutes p.i. and 1.9 at the time of 60 minutes p.i. […] The enhancement in the healthy lymph node tissue was 195% at the time of 15 minutes p.i. and 233% at the time of 60 minutes p.i. […] The ratio of signal intensities of healthy lymph node tissue to metastasis was 1.9 at the time of 15 minutes p.i. and 1.8 at the time of 60 minutes p.i.

[6] = proton relaxivity in plasma (R^1), Minispec P 20; type: physicochemical; conditions: 40° C., 0.47 tesla, bovine plasma
Procedure: As a third criterion, the proton-relaxivity in plasma (R^1) at 40° C. and a field strength of 0.47 tesla is used. The relaxivity, which is indicated in [l/mmol·s], is the quantitative measurement for the shortening of relaxation time T^1 of the protons. For the purpose according to the invention, the relaxivity must be as high as possible and >10 l/mmol·s, preferably >13 l/mmol·s, especially preferably >15 l/mmol·s.
Relaxivity R^1 [l/mmol·s] of the MR-contrast media according to the invention was determined with the Minispec P 20 device of the Bruker Company. The measurements were taken at 40° C. and a field strength of 0.47 tesla. Eight measuring points were recorded by each T1-sequence: 180°-TI-90°, inversion recovery. As a medium, bovine plasma of the Kraeber Company was used. The contrast medium concentrations [mmol/l] in the batches were between 0.30 and 1.16.

[7] = hydrodynamic micelle diameter (2 Rh) by photon correlation spectroscopy (PCS); type: physicochemical
From the text: The amphiphilic compounds according to the invention are combined in solution and are present as aggregates. The size (2 Rh) of such aggregates (e.g., micelles, rods, wafers, etc.) can be determined with the aid of […] (PCS).
As a second criterion, the hydrodynamic micelle diameter 2 Rh, which must be >1 nm, is therefore used. Those perfluoroalkyl-containing metal complexes according to the invention whose 2 RH is ≧3, quite especially preferably >4 nm, are especially suitable.
as §1

[8] = tested on: arteriosclerotic plaque; experiment: MRT-visualization of arteriosclerotic plaque after intravenous administration; type: in vivo, Watanabe rabbits
From the text: Based on the contrast between the plaque with strong signals and the healthy vessel wall with little or no signals, a diagnosis of the arteriosclerotic vessel wall changes was possible.
The localization of the plaque, especially in aortic arches and in vascular passages, was confirmed by means of Sudan-III-staining.
The localization of the plaque, especially in aortic arches as well as in vascular passages, was confirmed by means of Sudan-III-staining. Then, the MR-imaging of the agar-embedded preparation was again examined with a T1-weighted gradientecho sequence (MPRage; 1.5 T; TR 11.1 ms, TE 4.3 ms, 15° flip angle α; NA: 2; matrix: 213*256) and a spin-echo sequence (1.5 T; TR: 400 ms, TE: 15 ms; NA: 16; matrix: 256*256) (post mortem image).

[9] = 24 hours after contrast medium administration

For `O=S(=O)([O-])c1ccc(-c2c3nc(c(-c4ccc(S(=O)(=O)[O-])cc4)c4ccc([nH]4)c(-c4ccc(S(=O)(=O)[O-])cc4)c4nc(c(-c5ccc(S(=O)(=O)[O-])cc5)c5ccc2[nH]5)C=C4)C=C3)cc1.[Mn+4]` [Mn-TPPS, manganese-5,10,15,20-tetrakis(4-sulfonatophenyl)-porphyrin], the LD50 [1] is given as “approximately 0.5 mmol/kg” and the “dose at which an action starts” value [1] is given as 0.2 mmol/kg.
With `CC(C(=O)NCC(=O)NCCCC[C@H](NC(=O)CO[C@H]1O[C@H](CO)[C@@H](O)[C@H](O)[C@@H]1O)C(=O)N1CCN(S(=O)(=O)C(F)(F)C(F)(F)C(F)(F)C(F)(F)C(F)(F)C(F)(F)C(F)(F)C(F)(F)F)CC1)N1CCN(CC(=O)[O-])CCN(CC(=O)[O-])CCN(CC(=O)[O-])CC1.[Gd+3]` (stereo partly drawn) [metal complex XV, 6-N-[1,4,7-Tris(carboxylatomethyl)-1,4,7,10-tetraazacyclododecane-10-N-(pentanoyl-3-aza-4-oxo-5-methyl-5-yl)]-2-N-[1-O-α-D-carbonylmethyl-mannopyranose]-L-lysine-[1-(4-perfluorooctylsulfonyl)-piperazine]-amide, Gd complex] the “course of the enhancement of the primary tumor” value ([2]; 24 hours p.i.) was “propagates out from the center of the tumor”, the “enhancement of the primary tumor (especially the periphery)” value ([2]; immediately after administration) was “considerable enhancement” and the “CMC (critical micelle formation concentration)” value [3] was 2.5e-06 mol/L. For the same compound, the “signal in the infarction area (T1-weighted spin-echo images)” value [4] was “strong signal rise”, the “signal in healthy lymph node tissue (T1-weighted gradient-echo images)” value [5] was “strong signal rise” and the “signal in the metastasis, late” value [5, 9] was “considerable signal rise”. The “signal rise in healthy lymph node tissue, late” value [5, 9] was “reduced”, the “signal in zones within the lymph node diagnosed as metastases (confirmed histologically)” value ([5]; early images) was “without signal rise” and the “R^1 Plasma (relaxivity)” value [6] was 15.9 mmol⁻¹ s⁻¹. For the same compound, the “2 Rh (hydrodynamic micelle diameter)” value [7] was 4.4 nm, the “signal in arteriosclerotic plaque (MR images of the aorta)” value ([8]; 35 minutes, 60 minutes and 24 hours after i.v. 10 μmol of Gd/kg) was “strong signal rise” and the “signal in the arteriosclerotic plaque (MR images of the aorta)” value ([8]; 24 hours and 48 hours after i.v. 25 μmol of Gd/kg) was “strong signal rise”. The “correlation of the aortic sections with strong signal rise and Sudan-III stained plaque” value ([8]; post mortem image of the agar-embedded preparation, 10 μmol of Gd/kg i.v.) was “excellent correlation”.
